Test results taken from patent US12642796B2, “Method and device of treating chronic kidney disease-associated pruritus” (Avior, Inc., priority 2018, dated 2026).
“And” between values parts separate entries of the source, which are not always exact repeats. Equal entries are not always repeated.

Legend:
Assay type in all cases: in vivo, mouse
[1] = test system: C57BL mice; assay: SP injection, scratches Groups 7-9, 0-30 minutes (Example 3)
Procedure: […] […] Group 9 (N=4) received SP in PBS at a dose of 0.5 mM/50 μL. Various scratching behavior was video recorded and assessed.
Group 7: All mice were placed in a clear cylindrical enclosure 30 minutes prior to testing to acclimate. An ID bolus injection of SP in sodium acetate was administered.
Groups 8 and 9: All mice were placed in a clear cylindrical enclosure 30 minutes prior to testing to acclimate. An ID bolus injection of SP in PBS was administered. Recording began immediately following injection of SP and recorded for 30 minutes.
Animals in Groups 7-9 were acclimated for […] prior to recording. Behavioral recording lasted for 30 minutes (T0-T30).
The number of scratches per 0-30 minutes for Groups 7-9 is given below in Table 2. The numbers for Groups 7 and 8 were averaged together.

[2] = test system: C57BL/6 mice; assay: Dose escalation of SP, mean scratch count (Example 4)
Procedure: The SP dose administered to male C57BL/6 mice was escalated and itching was recorded for analysis. Group 13 (N=8) received ID injection of 135 μg SP on the right side of the rostral back. Group 14 (N=8) received ID injection of 233 μg SP on the right side of the rostral back. At T0-60, immediately following dose administration, a camera began recording to monitor itching behavior. At T60, the final itching assessment was completed, camera recording ended, and the study was concluded.
The recordings were reviewed to calculate itching behavior. Two research associates reviewed the recordings and counted the number of scratches for each mouse during the 60-minute collection time. The mean of the two observations were recorded as the number of scratches per 60 minutes.
The scratching over time was observed per 10 minute time period for each animal tested. The data is set forth below in Table 6 and is shown graphically in FIG. 6.

[3] = test system: C57BL mice; assay: Intradermal injection of SP in mice, scratching behavior at the injection site (Example 1)
Text: The method of treatment of pruritus was established using C57BL mice where substance P (SP) induced pruritus was created to induce the disease state.
Healthy male C57BL/6 mice ˜6-8 weeks of age and ranging from 21.2 to 26.8 grams in weight at study initiation were used in the Examples. The mice were acclimated for a minimum of 5 days prior to the beginning of the study. The mice were identified by tail mark and cage label. The study was not blinded. Mice were fed species-specific food, and food and water were supplied ad libitum to the animals.
Male C57BL mice were given an intradermal (ID) injection of 0.0168 μg of SP (N=4, Group 1) or PBS (N=2, Group 2) on either the right side only or on both sides. Scratching behavior at the injection site was monitored for 30 minutes from time of injection by two separate observers.
The original dose of 0.0168 μg SP (Group 1) was compared to a higher dose of 33.7 μg SP (N=4, Group 3). […] It was therefore concluded that the scratching behavior was a direct response to the presence and amount of SP.

[4] = test system: C57BL/6 mice; assay: SP and nalmefene injection, scratches Groups 10-12, 0-60 minutes (Example 3)
Procedure: Fifteen male C57BL/6 mice received a single intradermal (ID) bolus injection of substance P (SP) or PBS. Group 10 (N=6) received a single 50 μL injection of PBS. Group 11 (N=4) received SP in PBS at a dose of 0.5 mM/50 μl. […] Scratching behavior was video recorded and assessed.
Groups 10 and 11: All mice were placed in a clear cylindrical enclosure 60 minutes prior to testing to acclimate. An ID bolus injection of SP in PBS was administered. Recording began immediately following injection of SP and recorded for 60 minutes.
Group 12: All mice were placed in clear cylinder enclosures for 60 minutes prior to testing to acclimate. A SC bolus injection of nalmefene was administered. 30 minutes after the nalmefene injection, an ID bolus injection of SP in PBS was administered. Recording began immediately following injection of SP and recorded for 60 minutes.
Animals in Groups 10-12 were acclimated for 1 hour prior to recording. Behavioral recording lasted for 60 minutes (T0-T60). 6 animals were dosed for Group 12 but only 5 animals were tested due to one animal being excluded as an outlier due to no response to SP injection.
The number of scratches per 10-minute time interval for Groups 10-12 is given below in Table 3. The data is also shown graphically in FIG. 4.
The number of scratches per 0-30 minute and 30-60 minute time intervals is given below in Table 4 for Group 10 (PBS), Group 11 (0.5 mM SP), and Group 12 (0.75 mg nalmefene). The data is also shown graphically in FIG. 5.

[5] = test system: C57BL mice; assay: Effect of nalmefene on SP-induced scratching behavior (Example 2); details: nalmefene SC 1 hour prior to SP ID 33.7 μg; 30 and 60 minutes after SP, FIG. 3
Procedure: Scratching behavior was monitored for 30 and 60 minutes after SP injection. Controls included mice that received PBS instead of SP (N=6, Group 5) and mice that received a placebo dose of PBS and ID dose of SP (N=4, Group 6).

[6] = 250 mM SP ID, Groups 7 and 8 averaged together
[7] = Group 13, 135 μg SP ID, 0-10 min
[8] = Group 13, 135 μg SP ID, 10-20 min
[9] = Group 13, 135 μg SP ID, 20-30 min
[10] = Group 13, 135 μg SP ID, 30-40 min
[11] = Group 13, 135 μg SP ID, 40-50 min
[12] = Group 13, 135 μg SP ID, 50-60 min
[13] = Group 14, 233 μg SP ID, 0-10 min
[14] = Group 14, 233 μg SP ID, 10-20 min
[15] = Group 14, 233 μg SP ID, 20-30 min
[16] = Group 14, 233 μg SP ID, 30-40 min
[17] = Group 14, 233 μg SP ID, 40-50 min
[18] = Group 14, 233 μg SP ID, 50-60 min
[19] = Group 11, SP 0.5 mM/50 μL ID, 0-10 min
[20] = Group 11, SP 0.5 mM/50 μL ID, 10-20 min
[21] = Group 11, SP 0.5 mM/50 μL ID, 20-30 min
[22] = Group 11, SP 0.5 mM/50 μL ID, 30-40 min
[23] = Group 11, SP 0.5 mM/50 μL ID, 40-50 min
[24] = Group 11, SP 0.5 mM/50 μL ID, 50-60 min
[25] = Group 12, Nalmefene 0.75 mg SC before SP 0.5 mM ID, 0-30 min
[26] = Group 12, Nalmefene 0.75 mg SC before SP 0.5 mM ID, 30-60 min
[27] = Group 12, nalmefene 0.075 mg/75 μL SC 30 min prior to SP 0.5 mM/50 μL ID, 0-10 min
[28] = Group 12, nalmefene 0.075 mg/75 μL SC 30 min prior to SP 0.5 mM/50 μL ID, 10-20 min
[29] = Group 12, nalmefene 0.075 mg/75 μL SC 30 min prior to SP 0.5 mM/50 μL ID, 20-30 min
[30] = Group 12, nalmefene 0.075 mg/75 μL SC 30 min prior to SP 0.5 mM/50 μL ID, 30-40 min
[31] = Group 12, nalmefene 0.075 mg/75 μL SC 30 min prior to SP 0.5 mM/50 μL ID, 40-50 min
[32] = Group 12, nalmefene 0.075 mg/75 μL SC 30 min prior to SP 0.5 mM/50 μL ID, 50-60 min

Compound: SP: neuropeptide that plays a role in the induction and maintenance of pruritus; injected intradermally to induce scratching
- Scratches, Facial, Avg. [1, 6]: 110
- Scratches, Facial, individual animals [1, 6]: 110 and 139 and 137 and 54
- Scratches, Left Side, Avg. [1, 6]: 39
- Scratches, Left Side, individual animals [1, 6]: 1 and 69 and 4 and 82
- Scratches, Other, Avg. [1, 6]: 38
- Scratches, Other, individual animals [1, 6]: 38 and 45 and 43 and 26
- Scratches, Rt. Side, Avg. [1, 6]: 12.5
- Scratches, Rt. Side, individual animals [1, 6]: 0 and 36 and 4 and 10
- Scratches, Facial, Avg. ([1]; SP 0.5 mM ID (Group 9)): 29.75
- Scratches, Facial, individual animals ([1]; SP 0.5 mM ID (Group 9)): 5 and 20 and 48 and 46
- Scratches, Left Side, Avg. ([1]; SP 0.5 mM ID (Group 9)): 12
- Scratches, Left Side, individual animals ([1]; SP 0.5 mM ID (Group 9)): 15 and 22 and 11 and 0
- Scratches, Other, Avg. ([1]; SP 0.5 mM ID (Group 9)): 21
- Scratches, Other, individual animals ([1]; SP 0.5 mM ID (Group 9)): 7 and 27 and 35 and 15
- Scratches, Rt. Side, Avg. ([1]; SP 0.5 mM ID (Group 9)): 16.75
- Scratches, Rt. Side, individual animals ([1]; SP 0.5 mM ID (Group 9)): 28 and 7 and 13 and 19
- Mean Scratch Count, Avg. [2, 7]: 56.75
- Mean Scratch Count, individual animals [2, 7]: 127 and 58 and 5.5 and 22 and 57 and 21.5 and 91 and 72
- Mean Scratch Count, Avg. [2, 8]: 26.44
- Mean Scratch Count, individual animals [2, 8]: 53.5 and 41.5 and 0 and 7 and 36 and 23 and 41 and 9.5
- Mean Scratch Count, Avg. [2, 9]: 8.88
- Mean Scratch Count, individual animals [2, 9]: 0 (2×) and 4 and 7 and 2 and 12.5 and 22.5 and 23
- Mean Scratch Count, Avg. [2, 10]: 3.69
- Mean Scratch Count, individual animals [2, 10]: 0 (4×) and 15 and 0.5 and 12 and 2
- Mean Scratch Count, Avg. [2, 11]: 1.06
- Mean Scratch Count, individual animals [2, 11]: 0 (6×) and 5 and 3.5
- Mean Scratch Count, Avg. [2, 12]: 0.31
- Mean Scratch Count, individual animals [2, 12]: 0 (6×) and 2 and 0.5
- Mean Scratch Count, Avg. [2, 13]: 89.88
- Mean Scratch Count, individual animals [2, 13]: 123 and 131.5 and 108 and 85.5 and 8 and 33 and 145 and 85
- Mean Scratch Count, Avg. [2, 14]: 30.06
- Mean Scratch Count, individual animals [2, 14]: 56.5 and 32 and 42 and 33 and 6 and 9 and 35 and 27
- Mean Scratch Count, Avg. [2, 15]: 13.94
- Mean Scratch Count, individual animals [2, 15]: 7 and 6 and 27 and 21.5 and 5 and 10.5 and 16 and 18.5
- Mean Scratch Count, Avg. [2, 16]: 5.19
- Mean Scratch Count, individual animals [2, 16]: 0 (2×) and 3 and 5 (2×) and 16.5 and 8 and 4
- Mean Scratch Count, Avg. [2, 17]: 3.56
- Mean Scratch Count, individual animals [2, 17]: 3 and 0 (3×) and 4 and 7.5 and 1 and 13
- Mean Scratch Count, Avg. [2, 18]: 6.31
- Mean Scratch Count, individual animals [2, 18]: 8 and 0 (2×) and 2 and 33 and 1 (2×) and 5.5
- local site scratching behavior ([3]; 0.0168 μg SP ID vs PBS-injected mice, 30 minutes from injection, FIG. 2a): more frequent
- scratching in mice, higher vs lower SP dose ([3]; 33.7 μg SP vs 0.0168 μg SP, FIG. 2b): increased scratching
- Scratches, Avg. ([4]; Group 11, SP 0.5 mM, 0-30 min): 87.5
- Scratches, individual animals ([4]; Group 11, SP 0.5 mM, 0-30 min): 119 and 67 and 94.5 and 69.5
- Scratches, Avg. ([4]; Group 11, SP 0.5 mM, 30-60 min): 8.38
- Scratches, individual animals ([4]; Group 11, SP 0.5 mM, 30-60 min): 19.5 and 5.5 and 2.5 and 6
- Scratches, Avg. [4, 19]: 53.75
- Scratches, individual animals [4, 19]: 57.5 and 66 and 49 and 42.5
- Scratches, Avg. [4, 20]: 28
- Scratches, individual animals [4, 20]: 41.5 and 1 and 45 and 24.5
- Scratches, Avg. [4, 21]: 5.75
- Scratches, individual animals [4, 21]: 20 and 0 and 0.5 and 2.5
- Scratches, Avg. [4, 22]: 6
- Scratches, individual animals [4, 22]: 15.5 and 0 and 2.5 and 6
- Scratches, Avg. [4, 23]: 0
- Scratches, individual animals [4, 23]: 0
- Scratches, Avg. [4, 24]: 2.38
- Scratches, individual animals [4, 24]: 4 and 5.5 and 0 (2×)

Compound: C=C1CC[C@@]2(O)[C@H]3Cc4ccc(O)c5c4[C@@]2(CCN3CC2CC2)[C@H]1O5 [Nalmefene, 6-methylene-6-deoxy-N-cyclopropylmethyl-14 hydroxydihydronormorphine]
- pruritogenic response to SP [5]: completely mitigated
- Scratches, Avg. [4, 25]: 8.6
- Scratches, individual animals [4, 25]: 10 and 29 and 0 (2×) and 4
- Scratches, Avg. [4, 26]: 2.9
- Scratches, individual animals [4, 26]: 1 and 5 and 0 (2×) and 8.5
- Scratches, Avg. [4, 27]: 2
- Scratches, individual animals [4, 27]: 10 and 0 (4×)
- Scratches, Avg. [4, 28]: 3
- Scratches, individual animals [4, 28]: 0 (3×) and 13 and 2
- Scratches, Avg. [4, 29]: 3.6
- Scratches, individual animals [4, 29]: 0 (3×) and 16 and 2
- Scratches, Avg. [4, 30]: 1
- Scratches, individual animals [4, 30]: 0 (4×) and 5
- Scratches, Avg. [4, 31]: 1.8
- Scratches, individual animals [4, 31]: 0.5 and 5 and 0 (2×) and 3.5
- Scratches, Avg. [4, 32]: 0.1
- Scratches, individual animals [4, 32]: 0.5 and 0 (4×)
- ability to control scratching behavior, and by extension pruritus ([4]; Group 12 vs Groups 10 and 11, 0-60 min): maintained over the hour
